Data: patent US8895585B2, “Nicotinamide derivative or salt thereof” (FUJIFILM Corporation, priority 2010, dated 2014)

molecular target: T1, glutathione S-transferase (GST)-fused full-length human Syk protein (Homo sapiens, UniProt P43405); assay: Syk enzyme assay; type: biochemical; details: Syk enzyme assay, Test Example 1; read-out: IC50 of Syk-inhibitory activity
T1 construct: (GST)-fused full-length human Syk protein; GST (glutathione S-transferase); purchased Carna Biosciences
Procedure, shortened: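 Baculovirus-expressed enzyme (1.2 ng) was preincubated with compound in HEPES pH 7.0/MgCl2/DTT buffer, 2 min shaking then 13 min at room temperature. Biotin-EDPDYEWPSA-NH2 (0.4 μM final) and ATP (27 μM final) were added for 40 min at room temperature. EDTA stop, streptavidin-XL/PT66-K TR-FRET at 615/665 nm gave IC50.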

| SMILES | IC50 [nM] |
| --- | --- |
| COc1cccc(-c2cncc(Nc3nc(N[C@@H]4CCCC[C@@H]4N)c(F)cc3C(N)=O)c2)n1 (relative stereo) [Example 004-230, 6-((cis-2-aminocyclohexyl)amino)-5-fluoro-2-((6-methoxy-[2,3′-bipyridin]-5′-yl)amino)nicotinamide] | 10 to 50 |
| COc1ccc(-c2cncc(Nc3nc(N[C@@H]4CCCC[C@@H]4N)c(F)cc3C(N)=O)c2)cn1 (relative stereo) [Example 004-231, 6-((cis-2-aminocyclohexyl)amino)-5-fluoro-2-((6′-methoxy-[3,3′-bipyridin]-5-yl)amino)nicotinamide] | 10 to 50 |
| COc1cc(-c2cncc(Nc3nc(N[C@@H]4CCCC[C@@H]4N)c(F)cc3C(N)=O)c2)ccn1 (relative stereo) [Example 004-232, 6-((cis-2-aminocyclohexyl)amino)-5-fluoro-2-((2′-methoxy-[3,4′-bipyridine]-5-yl)amino)nicotinamide] | < 10 |
| NC(=O)c1cc(F)c(N[C@@H]2CCCC[C@@H]2N)nc1Nc1cncc(NC(=O)c2ccc(S(=O)(=O)F)cc2)c1 (relative stereo) [Example 027-017, 4-((5-(6-(cis-2-aminocyclohexylamino)-3-carbamoyl-5-fluoropyridin-2-yl)aminopyridin-3-yl)carbamoyl)benzene-1-sulfonyl fluoride] | 10 to 50 |
| CS(=O)(=O)Nc1cccc2cc(Nc3nc(N[C@@H]4CCCC[C@@H]4N)c(F)cc3C(N)=O)cnc12 (relative stereo) [Example 41-2, 6-(cis-2-aminocyclohexylamino)-5-fluoro-2-((8-(methylsulphonamide)quinolin-3-yl)amino)nicotinamide] | < 10 |
| NC(=O)c1cc(F)c(N[C@@H]2CCCC[C@@H]2N)nc1Nc1cnc2c(NS(=O)(=O)CCl)cccc2c1 (relative stereo) [Example 41-3, 6-(cis-2-aminocyclohexylamino)-2-((8-(2-chloromethylsulphonamide)quinolin-3-yl)amino)-5-fluoronicotinamide] | 10 to 50 |
| COc1ccc(S(=O)(=O)Nc2cccc3cc(Nc4nc(N[C@@H]5CCCC[C@@H]5N)c(F)cc4C(N)=O)cnc23)cc1 (relative stereo) [Example 41-5, 6-(cis-2-aminocyclohexylamino)-5-fluoro-2-((8-(4-methoxyphenylsulphonamide)quinolin-3-yl)amino)nicotinamide] | 50 to 100 |
| NC(=O)c1cc(F)c(N[C@@H]2CCCC[C@@H]2N)nc1Nc1cnc2c(NS(=O)(=O)c3ccc(Cl)cc3)cccc2c1 (relative stereo) [Example 41-6, 6-(cis-2-aminocyclohexylamino)-2-((8-(4-chlorophenylsulphonamide)quinolin-3-yl)amino)-5-fluoronicotinamide] | 50 to 100 |

Second part, the compound after the results:

| IC50 [nM] | SMILES |
| --- | --- |
| < 10 | Cn1ccc2c(Nc3nc(N[C@@H]4CCCC[C@@H]4N)c(F)cc3C(N)=O)cccc21 (relative stereo) [Example 006-059, 6-(cis-2-aminocyclohexylamino)-5-fluoro-2-((1-methyl-1H-indol-4-yl)amino)nicotinamide] |
| 100 to 1000 | Cn1cc2cccc(Nc3nc(N[C@@H]4CCCC[C@@H]4N)c(F)cc3C(N)=O)c2n1 (relative stereo) [Example 006-074, 6-(cis-2-aminocyclohexylamino)-5-fluoro-2-((2-methyl-2H-indazol-7-yl)amino)nicotinamide] |
| 10 to 50 | CN1CCc2ccc(Nc3nc(N[C@@H]4CCCC[C@@H]4N)c(F)cc3C(N)=O)cc2C1 (relative stereo) [Example 006-077, 6-(cis-2-aminocyclohexylamino)-5-fluoro-2-((2-methyl-1,2,3,4-tetrahydroisoquinolin-7-yl)amino)nicotinamide] |
| < 10 | NC(=O)c1cc(F)c(N[C@@H]2CCCC[C@@H]2N)nc1Nc1ccc2cn[nH]c2c1 (relative stereo) [Example 006-086, 6-(cis-2-aminocyclohexylamino)-5-fluoro-2-((1H-indazol-6-yl)amino)nicotinamide] |
| 10 to 50 | Cn1ccc2cc(-c3cncc(Nc4nc(N[C@@H]5CCCC[C@@H]5N)c(F)cc4C(N)=O)c3)ccc21 (relative stereo) [Example 006-091, 6-((cis-2-aminocyclohexyl)amino)-5-fluoro-2-((5-(1-methyl-1H-indol-5-yl)pyridin-3-yl)amino)nicotinamide] |
| 10 to 50 | NC(=O)c1cc(F)c(N[C@@H]2CCCC[C@@H]2N)nc1Nc1cncc(-n2ccnc2)c1 (relative stereo) [Example 006-127, 2-((5-(1H-imidazol-1-yl)pyridin-3-yl)amino)-6-((cis-2-aminocyclohexyl)amino)-5-fluoronicotinamide] |
| < 10 | NC(=O)c1cc(F)c(N[C@@H]2CCCC[C@@H]2N)nc1Nc1ccnc(-c2cc[nH]c2)c1 (relative stereo) [Example 006-131, 2-((2-(1H-pyrrol-3-yl)pyridin-4-yl)amino)-6-((cis-2-aminocyclohexyl)amino)-5-fluoronicotinamide] |
| 10 to 50 | Cc1ncc(Nc2nc(N[C@@H]3CCCC[C@@H]3N)c(F)cc2C(N)=O)cc1-n1ccnn1 (relative stereo) [Example 006-152, 6-((cis-2-aminocyclohexyl)amino)-5-fluoro-2-((6-methyl-5-(1H-1,2,3-triazol-1-yl)pyridin-3-yl)amino)nicotinamide] |
| 10 to 50 | NC(=O)c1cc(F)c(N[C@@H]2CCCC[C@@H]2N)nc1Nc1ccc(Nc2ccccc2)nc1 (relative stereo) [Example 006-164, 6-((cis-2-aminocyclohexyl)amino)-5-fluoro-2-((6-(phenylamino)pyridin-3-yl)amino)nicotinamide] |
| 50 to 100 | Cn1cc(Nc2nc(N[C@@H]3CCCC[C@@H]3N)c(F)cc2C(N)=O)cc(-n2ccnn2)c1=O (relative stereo) [Example 006-428, 6-((cis-2-aminocyclohexyl)amino)-5-fluoro-2-((1-methyl-6-oxo-5-(1H-1,2,3-triazol-1-yl)-1,6-dihydropyridin-3-yl)amino)nicotinamide] |
| < 10 | NC(=O)c1cc(F)c(N[C@@H]2CCCC[C@@H]2N)nc1Nc1cncc(NC(=O)c2ccno2)c1 (relative stereo) [Example 027-036, N-(5-(6-(cis-2-aminocyclohexylamino)-3-carbamoyl-5-fluoropyridin-2-yl)aminopyridin-3-yl)isoxazole-5-carboxamide] |
| < 10 | Cn1nnc2cc(C(=O)Nc3cncc(Nc4nc(N[C@@H]5CCCC[C@@H]5N)c(F)cc4C(N)=O)c3)ccc21 (relative stereo) [Example 027-042, N-(5-(6-(cis-2-aminocyclohexylamino)-3-carbamoyl-5-fluoropyridin-2-yl)aminopyridin-3-yl)-1-methyl-1H-benzo[d][1,2,3]triazol-5-carboxamide] |
| < 10 | NC(=O)c1cc(F)c(N[C@@H]2CCCC[C@@H]2N)nc1Nc1ccc2[nH]c(C(=O)N3CCOCC3)cc2c1 (relative stereo) [Example 029-017, 6-(cis-2-aminocyclohexylamino)-5-fluoro-2-((2-(morpholine-4-carbonyl)-1H-indol-5-yl)amino)nicotinamide] |
| < 10 | NC(=O)c1cc(F)c(N[C@@H]2CCCC[C@@H]2N)nc1Nc1ccc2[nH]c(C(=O)NCc3ccccc3)cc2c1 (relative stereo) [Example 029-018, 5-((6-(cis-2-aminocyclohexylamino)-3-carbamoyl-5-fluoropyridin-2-yl)amino)-N-benzyl-1H-indole-2-carboxamide] |
| < 10 | NC(=O)c1cc(F)c(N[C@@H]2CCCC[C@@H]2N)nc1Nc1ccc2[nH]c(C(=O)NCCN3CCOCC3)cc2c1 (relative stereo) [Example 029-019, 5-((6-(cis-2-aminocyclohexylamino)-3-carbamoyl-5-fluoropyridin-2-yl)amino)-N-(2-morpholinoethyl)-1H-indole-2-carboxamide] |

same assay, conditions: read-out: Syk-inhibitory activity (IC50)

| IC50 [nM] | SMILES |
| --- | --- |
| ≤ 1000 | COc1ccc(Nc2nc(N[C@@H]3CCCC[C@@H]3N)c(F)cc2C(N)=O)c2cccnc12 (relative stereo) [Example 6-67, 6-(cis-2-aminocyclohexylamino)-5-fluoro-2-((8-methoxyquinolin-5-yl)amino)nicotinamide] |
| ≤ 1000 | NC(=O)c1cc(F)c(N[C@@H]2CCCC[C@@H]2N)nc1Nc1cccc2nsnc12 (relative stereo) [Example 6-68, 6-(cis-2-aminocyclohexylamino)-2-(benzo[c][1,2,5]thiadiazol-4-ylamino)-5-fluoronicotinamide] |
| ≤ 1000 | NC(=O)c1cc(F)c(N[C@@H]2CCCC[C@@H]2N)nc1Nc1cncc(NC(=O)c2ccccc2)c1 (relative stereo) [Example 26, 6-(cis-2-aminocyclohexylamino)-2-(5-benzoylaminopyridin-3-ylamino)-5-fluoronicotinamide] |
| ≤ 1000 | NC(=O)c1cncc(Nc2nc(N[C@@H]3CCCC[C@@H]3N)c(F)cc2C(N)=O)c1 (relative stereo) [Example 28, 2-(5-aminocarbonylpyridin-3-ylamino)-6-(cis-2-aminocyclohexylamino)-5-fluoronicotinamide] |
| ≤ 1000 | NC(=O)c1cc(F)c(N[C@@H]2CCCC[C@@H]2N)nc1Nc1cncc(C(=O)O)c1 (relative stereo) [Example 29-1, 5-((3-aminocarbonyl-6-(cis-2-aminocyclohexylamino)-5-fluoropyridin-2-yl)amino)nicotinic acid] |
| ≤ 1000 | NC(=O)c1cc(Nc2nc(N[C@@H]3CCCC[C@@H]3N)c(F)cc2C(N)=O)ccn1 (relative stereo) [Example 29-12, 4-((3-aminocarbonyl-6-(cis-2-aminocyclohexylamino)-5-fluoropyridin-2-yl)amino)pyridin-2-carboxamide] |
| ≤ 1000 | CNC(=O)c1cc(Nc2nc(N[C@@H]3CCCC[C@@H]3N)c(F)cc2C(N)=O)ccn1 (relative stereo) [Example 29-13, 4-((3-aminocarbonyl-6-(cis-2-aminocyclohexylamino)-5-fluoropyridin-2-yl)amino)-N-methylpyridin-2-carboxamide] |
